From patent US4603142A, “Cholesterol lowering method of use” (Wisconsin Alumni Research Foundation, priority 1984, dated 1986)

Tests used:
HMG-CoA reductase [1] = biological target: T1, HMG-CoA reductase (Homo sapiens, UniProt P04035); assay: HPLC fractions checked in vitro for suppression of HMG Co-A reductase in isolated hepatocytes; assay type: cell-based; parameters: suppress HMG Co-A reductase activity in isolated hepatocytes; endogenous in cells; host or cells: isolated hepatocytes; conditions: HPLC fractions of petroleum ether solubles
T1 sequence (P04035 1-888): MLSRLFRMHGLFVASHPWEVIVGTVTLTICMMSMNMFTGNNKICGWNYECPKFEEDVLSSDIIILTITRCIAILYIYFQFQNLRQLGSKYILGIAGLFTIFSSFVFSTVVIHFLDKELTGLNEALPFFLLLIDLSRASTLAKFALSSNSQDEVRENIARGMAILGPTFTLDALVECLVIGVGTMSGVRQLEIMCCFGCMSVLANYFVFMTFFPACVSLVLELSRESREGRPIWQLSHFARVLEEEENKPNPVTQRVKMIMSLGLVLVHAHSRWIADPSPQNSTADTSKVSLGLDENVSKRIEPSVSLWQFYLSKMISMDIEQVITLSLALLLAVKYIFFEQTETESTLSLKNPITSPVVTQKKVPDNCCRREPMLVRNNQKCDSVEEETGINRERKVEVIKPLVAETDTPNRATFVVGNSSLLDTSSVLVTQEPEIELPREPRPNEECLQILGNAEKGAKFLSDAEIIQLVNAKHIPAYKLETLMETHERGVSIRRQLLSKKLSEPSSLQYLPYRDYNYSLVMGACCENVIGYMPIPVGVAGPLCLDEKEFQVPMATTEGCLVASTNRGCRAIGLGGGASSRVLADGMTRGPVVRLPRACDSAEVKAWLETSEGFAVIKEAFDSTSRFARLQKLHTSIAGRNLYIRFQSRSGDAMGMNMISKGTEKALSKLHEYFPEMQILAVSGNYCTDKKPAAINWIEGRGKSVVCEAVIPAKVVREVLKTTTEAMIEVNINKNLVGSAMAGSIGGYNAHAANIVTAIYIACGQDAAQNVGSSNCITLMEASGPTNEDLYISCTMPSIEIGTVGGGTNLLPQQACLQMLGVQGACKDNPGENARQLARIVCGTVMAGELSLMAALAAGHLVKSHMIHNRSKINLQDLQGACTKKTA

HMG-CoA reductase [2] = biological target: T1, HMG-CoA reductase; assay: Hepatic HMG-CoA reductase activity in 13-week-old WLH male chickens; assay type: in vivo, chicken; parameters: preparing subcellular fractions of liver and assay procedures for beta-hydroxy-beta-methylglutaryl coenzyme A (HMG Co-A) reductase; from tissue; host or cells: chicken liver (microsomal fraction); conditions: 20 ppm in corn diet, fed four weeks, liver
Excerpt: (§1) These responses were attributed to the presence in the small grains of relatively high concentrations of beta-D-glucans and pentosans. A long-standing interest in lipid metabolism prompted us to examine certain lipogenic and cholesterolgenic enzymes in the tissues of these birds. Methods used for handling blood samples, preparing subcellular fractions of liver and assay procedures for beta-hydroxy-beta-methylglutaryl coenzyme A (HMG Co-A) reductase, fatty acid synthetase (FAS), plasma cholesterol and triglycerides and the statistical treatment of the data have been described [Qureshi AA et al. (1980): Regulation of lipid metabolism in chicken livers by dietary cereals, J Nutr 110:388-393].
(§2) Cholesterol inhibitor I was re-chromatographed by HPLC and the UV absorption spectrum obtained. Maximum absorption occurred at 292 nm. This purified fraction was used for high resolution mass spectrometric analysis. Several scans were made using ionization temperatures from 90-180 degrees Centigrade to increase the possibility of detecting impurities. […] The results shown on Table 3 confirm those previously recorded for petroleum ether solubles of HPBF and cholestrol inhibitor I. In a final experiment, the effects of cholestrol inhibitor I and lemon grass oil on hepatocyte HMG Co-A reductase and FAS activities were tested. […]
(§3) expressed as mean ± SD; N = 8 chickens per group; HMGCoA reductase = […]

Fatty Acid Synthetase = assay: Hepatic fatty acid synthetase activity in 13-week-old WLH male chickens; assay type: in vivo, chicken; conditions: 20 ppm in corn diet, fed four weeks, liver
Excerpt: as §1, §2, §3

- Effect on HMG Co-A reductase in isolated hepatocytes (HMG-CoA reductase [1]): significant inhibition
- HMG-CoA Reductase, percentage of control (HMG-CoA reductase [2]): 63 Percentage of respective contr
- HMG-CoA Reductase (HMG-CoA reductase [2]; mean ± SD, N = 8): 305 ± 18 pmoles of mevalonic acid synth
Compound: CC(C)=CCC/C(C)=C/CC/C(C)=C/CC[C@]1(C)CCc2c(C)c(O)c(C)c(C)c2O1 [Cholesterol inhibitor I, 2,5,7,8-tetramethyl-2 (4,8, 12-trimethyltrideca-3,7, 11-trienyl)chroman-6-ol]
- Fatty Acid Synthetase, percentage of control (Fatty Acid Synthetase): 111 Percentage of respective contr
- Fatty Acid Synthetase (Fatty Acid Synthetase; mean ± SD, N = 8): 292 ± 9 nmoles of NADPH oxidized per m
